Measurements published in US8258114B2, “Modulation of glucose-6-phosphatase translocase expression” (Isis Pharmaceuticals, Inc., priority 2004, dated 2012).
Oligonucleotides are written 5' to 3', each unit as a sugar letter and its base; * is a phosphorothioate linkage, no mark a phosphodiester; rarer units and linkages stand in square brackets, end groups in braces. Plain capitals give the bases only. e = 2'-O-(2-methoxyethyl) (MOE); [5mC] = 5-methylcytosine; d = 2'-deoxy (DNA)

Tests used:
[1] = system: mouse glucose-6-phosphatase translocase mRNA; assay: Antisense inhibition of mouse glucose-6-phosphatase translocase mRNA in primary mouse hepatocytes, 150 nM, LIPOFECTIN (Table 22); format: cell-based; conditions: real-time PCR
Procedure, shortened: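 Primary CD-1 mouse hepatocytes at 65-75% confluency transfected ~4-7 h at 37° C with 150 nM 5-10-5 2′-MOE gapmer phosphorothioate oligonucleotides plus LIPOFECTIN (2.5 or 3 μg/mL per 100 nM). Harvested 16-24 h post-treatment; mRNA by real-time RT-PCR, normalized to GAPDH or RiboGreen total RNA, expressed as percent inhibition.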

[2] = Plasma glucose, cholesterol and triglycerides in normal Sprague-Dawley rats (Table 14); format: in vivo, rat; parameters: plasma GLUCOSE WK 0 / plasma GLUCOSE WK 3: unit not given beside the values
Procedure: (§1) Each treatment group was comprised of 4 animals.
To further assess the physiological effects resulting from inhibition of target mRNA, the rats were evaluated at the beginning (Wk 0) and at the end (Wk 3) of the treatment period for plasma glucose, plasma cholesterol, and plasma triglyceride levels. Triglycerides and cholesterol were measured by routine clinical analyzer instruments (e.g. Olympus Clinical Analyzer, Melville, N.Y.). Glucose levels were measured using a glucose analyzer, for example a YSI glucose analyzer (YSI Scientific, Yellow Springs, Ohio). Results are presented in Table 14 as the average level of plasma glucose, plasma cholesterol (CHOL), or plasma triglycerides (TRIG) measured per treatment group.

[3] = Body weight and tissue weights of normal Sprague-Dawley rats (Table 13); conditions: for Spleen weight / Fat weight / Kidney weight / Liver weight: end of study
Procedure: For three weeks, male Sprague-Dawley rats were injected twice-weekly with doses of 12.5 mg/kg, 25 mg/kg, or 50 mg/kg of ISIS 145760, ISIS 359543, or ISIS 366228. Each treatment group was comprised of 4 animals. Animals which received twice weekly injections of saline served as controls.
Body weight was monitored throughout the study period. […] Tissue weights were also measured at the end of the study.

[4] = system: glucose-6-phosphatase translocase mRNA; assay: Target reduction in liver: rat dose-response study (Table 12); format: in vivo; conditions: Sprague-Dawley rats; for % Inhibition, target reduction in liver: three weeks
Procedure: as §1
At the end of the treatment period, animals were sacrificed and target reduction in liver was measured by real-time PCR as described in other examples herein. Results are shown in Table 12 as the average percent reduction in glucose-6-phosphatase translocase levels as compared to saline treated control.

[5] = system: human glucose-6-phosphatase translocase mRNA; assay: Antisense inhibition of human glucose-6-phosphatase translocase mRNA in HepG2 cells (Table 11); format: cell-based; parameters: concentration or dose not given beside the values; conditions: LIPOFECTIN, mRNA by real-time PCR
Procedure, shortened: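 HepG2 cells at 65-75% confluency transfected with 2′-MOE gapmer oligonucleotides using LIPOFECTIN (2.5 or 3 μg/mL per 100 nM oligo) for 4-7 h and harvested 16-24 h later. Target mRNA measured by RT real-time PCR and normalized to GAPDH or RiboGreen total RNA.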

With “CGGCCCATCTTGGTGCGGAT (e[5mC]*eG*eG*e[5mC]*e[5mC]*d[5mC]*dA*dT*d[5mC]*dT*dT*dG*dG*dT*dG*e[5mC]*eG*eG*eA*eT; antisense) [ISIS 145706]” the “% Inhib of mouse glucose-6-phosphatase translocase mRNA levels” value [1] was 54%, the “plasma cholesterol (CHOL) WK 3” value ([2]; 12.5 mg/kg twice weekly, saline 58) was 51 and the “plasma triglycerides (TRIG) WK 0” value ([2]; 12.5 mg/kg twice weekly, saline 69) was 54. For the same sequence, the “plasma cholesterol (CHOL) WK 0” value ([2]; 12.5 mg/kg twice weekly, saline 74) was 69, the “plasma GLUCOSE WK 0” value ([2]; 12.5 mg/kg twice weekly, saline 135) was 149 and the “plasma GLUCOSE WK 3” value ([2]; 12.5 mg/kg twice weekly, saline 139) was 151. For the same sequence, the “plasma triglycerides (TRIG) WK 3” value ([2]; 12.5 mg/kg twice weekly, saline 140) was 61, the “plasma GLUCOSE WK 0” value ([2]; 25 mg/kg twice weekly) was 149 and the “plasma GLUCOSE WK 3” value ([2]; 25 mg/kg twice weekly) was 148. For the same sequence, the “plasma cholesterol (CHOL) WK 0” value ([2]; 25 mg/kg twice weekly) was 80, the “plasma cholesterol (CHOL) WK 3” value ([2]; 25 mg/kg twice weekly) was 59 and the “plasma triglycerides (TRIG) WK 0” value ([2]; 25 mg/kg twice weekly) was 45. For the same sequence, the “plasma triglycerides (TRIG) WK 3” value ([2]; 25 mg/kg twice weekly) was 58, the “plasma GLUCOSE WK 0” value ([2]; 50 mg/kg twice weekly) was 148 and the “plasma GLUCOSE WK 3” value ([2]; 50 mg/kg twice weekly) was 151. For the same sequence, the “plasma cholesterol (CHOL) WK 0” value ([2]; 50 mg/kg twice weekly) was 79, the “plasma cholesterol (CHOL) WK 3” value ([2]; 50 mg/kg twice weekly) was 57 and the “plasma triglycerides (TRIG) WK 0” value ([2]; 50 mg/kg twice weekly) was 66. The “plasma triglycerides (TRIG) WK 3” value ([2]; 50 mg/kg twice weekly) was 52, the “plasma triglycerides (in words)” value ([2]; 12.5 to 50 mg/kg, three weeks) was “prevented the increases in triglycerides observed in saline-treated animals” and the Spleen weight ([3]; 12.5 mg/kg twice weekly, saline 0.7) was 0.7 grams. For the same sequence, the Fat weight ([3]; 12.5 mg/kg twice weekly, saline 1.8) was 1.5 grams, the Kidney weight ([3]; 12.5 mg/kg twice weekly, saline 3) was 3 grams and the Liver weight ([3]; 12.5 mg/kg twice weekly, saline 15) was 15 grams. For the same sequence, the Body weight ([3]; 12.5 mg/kg twice weekly, week 3, saline 290) was 289 grams, the Fat weight ([3]; 25 mg/kg twice weekly) was 1.3 grams and the Kidney weight ([3]; 25 mg/kg twice weekly) was 3 grams. It also gave a Liver weight ([3]; 25 mg/kg twice weekly) of 15 grams, a Spleen weight ([3]; 25 mg/kg twice weekly) of 1.0 grams and a Body weight ([3]; 25 mg/kg twice weekly, week 3) of 300 grams. For the same sequence, the Fat weight ([3]; 50 mg/kg twice weekly) was 1.2 grams, the Kidney weight ([3]; 50 mg/kg twice weekly) was 3 grams and the Liver weight ([3]; 50 mg/kg twice weekly) was 16 grams. The Spleen weight ([3]; 50 mg/kg twice weekly) was 0.9 grams, the Body weight ([3]; 50 mg/kg twice weekly, week 3) was 290 grams and the “Increases in body weights (in words)” value ([3]; 12.5 to 50 mg/kg, throughout the study) was “comparable to the increases in body weight observed for saline-treated control animals”. For the same sequence, the “% Inhibition, target reduction in liver” value ([4]; 12.5 mg/kg twice weekly) was 12%, the “% Inhibition, target reduction in liver” value ([4]; 25 mg/kg twice weekly) was 56% and the “% Inhibition, target reduction in liver” value ([4]; 50 mg/kg twice weekly) was 77%. The “target mRNA levels in rat liver (in words)” value ([4]; 12.5 to 50 mg/kg) was “effective in reducing target mRNA levels in rat liver in a dose-dependent manner” and the “% Inhib” value [5] was 96%.
